Assay results taken from US20180256537A1, “METHODS FOR SURVIVAL AND REJUVENATION OF DERMAL FIBROBLASTS USING PKC ACTIVATORS” (priority 2015, published 2018).
Like-named read-outs stand apart in the source and are kept apart here.

Columns and labels:
[1] = target: PKC; conditions: Table 1, bryologs; read-out: PKC Affin; cited from earlier work
[2] = tested on: human skin fibroblasts; assay: Protection of human skin fibroblasts under serum starvation (microscopy); format: cell-based; conditions: for viability and cellular integrity, with or without Erk inhibitor: serum deprived culture 5 days
Method: Skin fibroblast samples AG09555 (isolated and banked from a healthy person) and AG04560 (isolated and banked from a healthy person; Aging Cell Culture Repository of the National Institute on Aging) were obtained from the Coriell Institute for Medical Research (Camden, N.J.). Fresh fibroblasts were isolated from a skin punch biopsy (2-3 mm, upper arm) from a healthy subject (0078F45). The skin biopsy was conducted by qualified personnel under the supervision of Dr. Shirley Neitch with IRB approval of Marshall University (Huntington, W. Va.). All subjects signed informed consent forms under Marshal University rules and regulations. The method for isolating fibroblasts from skin biopsies was similar to the method previously described (Zhao et al, 2002; Khan and Alkon, 2006).
(§1) Primary skin fibroblasts isolated from skin biopsies were maintained in Dulbecco's Modified Eagle Medium (DMEM) with low glucose (Invitrogen, Grand Island, N.Y.) supplemented with 10% FBS in 6-well culture dishes (37° C., 5% CO2, 90% humidity) until the cells reached 90-100% confluence. Cells were cultured in completely serum-free medium to simulate stress conditions. After culture in serum-free media for 24 hours, cells were treated with vehicle, 0.3 nM bryostatin1, or 5 nM picolog. […] Nanomolar concentrations of picolog were previously found to be effective for cellular activation (Khan et al, 2009). The condition of the cultured skin fibroblasts was monitored with an inverted cell culture microscope (Westover Digital AMID Model 2000, Westover Scientific, Bothell, Wash.), controlled by a computer and images were captured with image acquisition software (Micron 2.0.0, Westover Scientific).

[3] = tested on: Erk1/2; assay: Immunoblot analysis of Erk activation in serum-deprived fibroblasts; format: cell-based, human
Method: as §1
(§2) Protein lysates (20 μg of protein each) were boiled in 2× Laemmli buffer for 10 min and separated using a 10% […] Tris-Glycine gel (or 4-20% gradient Tris-Glycine gel for caspase-8). […] Signal intensities of the images were recorded in the ImageQuant RT-ECL (GE Life Sciences, Piscataway, N.J.) and densitometric quantification was performed using the IMAL software (Blanchette Rockefeller Neurosciences Institute, Morgantown, W. Va.). […]

[4] = tested on: human skin equivalents (HSEs); assay: Cell survival within human skin equivalents (HSEs); format: cell-based
Method: The Clonetics™ keratinocyte system containing normal adult human epidermal keratinocytes (NHEK) was used as source of epidermal keratinocytes (Lonza, Walkersville, Md.). Human adult epidermal keratinocyte cells were cultured in keratinocyte basal medium supplemented with appropriate growth factors (Clonetics KGM-Gold™ BulletKit™ [cat#00192060] contains one 500 ml bottle of keratinocyte basal medium-gold supplemented with bovine pituitary extract (BPE), 2 ml; hEGF, 0.5 ml; insulin, 0.5 ml; hydrocortisone, 0.5 ml; transferrin, 0.5 ml; epinephrine, 0.25 ml; GA-1000, 0.5 ml) in T25 culture flasks in an incubator at 37° C., 5% CO2, and 90% humidity. The growth medium was changed the day after seeding and every other day thereafter. Keratinocytes were used up to 18 population doublings. All cell preparations tested negative for mycoplasma, bacteria, yeast, and fungi. The condition of the skin keratinocytes was monitored with an inverted cell culture microscope (Westover Digital AMID Model 2000, Westover Scientific), controlled by a computer and images were captured using image acquisition software (Micron 2.0.0, Westover Scientific).
HSEs have been used commercially as clinical skin substitutes (Orcel® from FortiCell Bioscience, Englewood Cliffs, N.J.; FDA approved in 2001/2008; Apligraf® from Genzyme Tissue Repair Corporation, Cambridge, Mass., FDA approved in 2007) and as in vitro models for skin biochemical tests and toxicity tests (Mertsching et al, 2008; Zhang and Michniak-Kohn, 2012). We engineered an HSE composed of both epidermal and dermal layers; keratinocytes and fibroblasts were utilized to prepare the bilayer structures (Shevchenko et al, 2010). Dermal fibroblasts were cultured on a 6-well collagen-coated surface (Biocoat Cell Environment, Becton Dickinson, Bedford, UK) or BD BIOCOAT™ plates (BD Biosciences, San Jose, Calif.). Fibroblast cells were maintained in DMEM with low glucose (Invitrogen) supplemented with 10% FBS, and were grown to 100% confluence. Culture medium was removed and the cells were washed three times with DMEM (without serum) to remove all growth factors. Previously cultured epidermal keratinocytes were added to the fibroblasts as the second layer (FIG. 1). […] The condition of the HSEs was monitored with an inverted cell culture microscope (Westover Digital AMID Model 2000, Westover Scientific), controlled by a computer and images were captured via image acquisition software (Micron 2.0.0, Westover Scientific).

[5] = tested on: caspase-8; assay: Immunoblot analysis of caspase-8 expression in dermal fibroblasts; format: cell-based, human
Method: as §1, §2

[6] = tested on: matrix metalloproteins 1, 3, 9, 10 and 11 (MMP's); conditions: cited from earlier work
[7] = cited from earlier work
[8] = cited from earlier work; remark: listed apart in the source
[9] = tested on: PKC; conditions: cited from earlier work
[10] = target: PKC; conditions: [3H] phorbol dibutyrate competition; cited from earlier work
[11] = tested on: squamous cell carcinoma and melanoma; conditions: used topically; cited from earlier work
[12] = tested on: NCI 60 cell line screen; conditions: cited from earlier work
[13] = tested on: Erk1/2; conditions: RasGRP3-dependent manner; cited from earlier work
[14] = tested on: human skin fibroblasts; assay: Cell viability test by MTT assay; format: cell-based; conditions: 5 nM, serum starvation 15 days, versus untreated cells
Method: as §1
Cell viability assay was conducted by measuring 3-(4,5-dimethylthiazol-2-yl)-2,5-diphenyltetrazolium (MTT) bromide dye absorbance. After treatment, cells were labeled with MTT and dissolved by adding SDS-HCl solution to each well and mixing thoroughly with a pipette tip. Absorbance was read at 570 nm using a microplate reader. Data were presented in terms of relative cell viability.

[15] = target: protein kinase C; conditions: (−)-enantiomer; cited from earlier work

## CCCCCCCC(=O)O[C@H]1/C(=C/C(=O)OC)C[C@H]2C[C@H](CO)OC(=O)C[C@H](O)C[C@@H]3CCC[C@H](C[C@@H]4CCO[C@H](/C=C/C(C)(C)[C@]1(O)O2)O4)O3 [Analog 1]
[1]
  Ki: 0.25 nM

## CCC/C=C/C=C/C(=O)O[C@H]1/C(=C/C(=O)OC)C[C@H]2C[C@H]([C@@H](C)O)OC(=O)C[C@H](O)C[C@@H]3C[C@H](OC(C)=O)C(C)(C)C(O)(C[C@@H]4C/C(=C/C(=O)OC)C[C@H](/C=C/C(C)(C)[C@]1(O)O2)O4)O3 [Bryostatin-1]
[2]; 0.3 nM, 5 days serum-free, 6-well plates
  cellular integrity of freshly isolated fibroblasts: healthy and appear to be normal
[2]; 0.3 nM, 5 days serum-free, treated versus control group
  percentage of viable fibroblasts: lower percentage of viable fibroblast in the control group
[2]; 0.3 nM, 15 days serum free culture
  loss of dermal fibroblast cells: no significant loss of dermal fibroblast cells
[2]; 0.3 nM, 35 days serum free culture, versus control group
  structural integrity and number of viable cells: greater structural integrity and a higher number of live, viable cells
[2]; 25 days serum-starved
  cellular integrity of collagen matrix supported fibroblasts: maintains the cellular integrity
[2]
  viability and cellular integrity, with or without Erk inhibitor: showed the greatest viability and good cellular integrity
[2]; sub-nanomolar amounts, 20 days serum starved
  survival of banked skin fibroblasts: prevented the death of human skin fibroblasts
[3]; 0.3 nM, serum-free conditions
  activation of Erk1/2 (p-Erk/Erk): induced activation of Erk1/2
[4]; 9 days versus 12 days in culture
  protective effect in HSEs over time: decreases as a function of time
[4]; single dose and two dose treated HSEs
  fibroblast survival and viability in HSEs versus untreated: significantly greater
[4]; single treatment 0.3 nM, versus untreated HSEs
  fibroblast cell death in HSEs: showed fewer dead fibroblast cells overall
[4]; two doses (0.3 nm) versus single 0.3 nM dose
  survival of fibroblast cells in HSEs, two doses versus single dose: greater than fibroblasts in HSEs receiving a single 0.3 nM dose
[5]; after 3 days of treatment
  caspase-8 expression levels, time course: greatest decrease
[5]; treated versus control fibroblasts
  caspase-8 expression levels in cell lysate: reduced expression levels of caspase-8
[6]
  production of matrix metalloproteins 1, 3, 9, 10 and 11: inhibits the production
[7]; 20 μg/week
  toxicity: no toxicity
[7]; more than 35 μg/week
  adverse effect: may be associated with muscle pain

## CCC/C=C/C=C/C(=O)O[C@H]1/C(=C/C(=O)OC)C[C@H]2C[C@H]([C@@H](C)O)OC(=O)C[C@H](O)C[C@@H]3C[C@H](OC(C)=O)C(C)(C)[C@](O)(C[C@@H]4C/C(=C/C(=O)OC)C[C@H](/C=C/C(C)(C)[C@]1(O)O2)O4)O3 [Bryostatin-1]
[8]; after a single injection
  time detectable in the blood: 14 days
[8]; blood
  half-life (t1/2) in the blood stream: 1 h
[8]; in vivo
  crossing of the blood-brain barrier: crosses the blood-brain barrier
[8]; intravenous injection, at 100 hrs
  share of initial dose in the blood: 1%

## CCC1CC1CC1CC1CC1CC1CC1CC1CC1CC1CC1CC1CCC(=O)OC (centres unmarked) [DHA-CP6, cyclopropanated docosahexaenoic acid methyl ester]
[9]
  effective concentration: 10 nM

## CC1=C[C@]23C(=O)[C@@H](C=C(COC(=O)c4ccccc4)[C@@H](O)[C@]2(O)[C@H]1OC(=O)c1ccccc1)[C@H]1[C@@H](C[C@H]3C)C1(C)C [Ingenol 3,20-dibenzoate]
[10]
  Ki: 240 nM

## C/C=C(/C)C(=O)O[C@H]1C(C)=C[C@]23C(=O)[C@@H](C=C(CO)[C@@H](O)[C@]12O)[C@H]1[C@@H](C[C@H]3C)C1(C)C [Ingenol-3-angelate]
[11]
  antitumor activity: exhibits antitumor activity

## CC1=CC[C@H](C)C(C)(C)[C@@H]1/C=C/C(C)=C/CC[C@@]1(CO)[C@H](CCCO)/C(=C(/C)C=O)CC[C@]1(C)O [Iripallidal]
[12]
  GI50 (concentration required to inhibit growth by 50%): micromolar to nanomolar range
[13]
  phosphorylation of Erk1/2: induces phosphorylation of Erk1/2

## COc1cccc(-c2cc(=O)c3ccccc3o2)c1N [PD98059]
[2]
  viability and cellular integrity, with or without Erk inhibitor: lowered the cell protective effects of bryostatin-1
[3]; PD98059 30 μM with bryostatin-1
  effect on bryostatin-1 induced Erk activation: significantly blocked

## CCCCCCCC(=O)O[C@H]1/C(=C/C(=O)OC)CC2C[C@H](CO)OC(=O)C[C@H](O)C[C@@H]3CCC[C@H](C[C@@H]4CCO[C@H](/C=C/C(C)(C)[C@]1(O)O2)O4)O3 [picolog]
[14]
  relative cell viability (MTT): increased the relative viability of fibroblast cells
[2]; 5 nM, serum free, 15 days
  cell survival of human skin fibroblasts: increased cell survival

## Octylindolactam V
[15]
  EC50: 29 nM
